{"source": "patent US9512072B2", "about": "“Biodegradable computed tomography contrast agents” (Case Western Reserve University, priority 2013, dated 2016)", "system": "BALB/c mice", "assay": "In vivo blood pool CT imaging on micro-CT scanner", "design": "species or system mouse", "settings": "350 mg-I/kg i.v.", "description": "The polymeric contrast agents and the control contrast agent, iodixanol, were evaluated with BALB/c mice (18-22 g body weight, 6 mice per agent). All the mice were scanned on the same machine as the in vitro detection. The images were obtained at an x-ray voltage of 80 kVp, an anode current of 500 μA and an exposure time of 200 ms for every rotational steps (total rotation degree is 360 and rotation steps are 180). The field of view was […]. Images were reconstructed in a 1024 pixel×1024 pixel grid with a pixel size of 18 μm×18 μm. […]\nCT values are expressed in Hounsfield Units (HU) and were obtained per organ by drawing volumetric regions of interest (RIOs). […] The average HU values and the standard deviation were calculated from the data with 3 ROIs per organ. The CT data was analyzed to determine the contrast enhancement of different agents at various time points post-injection. In vivo CT values of the regions of interest, such as heart, blood, liver and bladder, were measured to study the dynamic enhancement of different organs. […]\nThe effectiveness of the iodinated polydisulfides for in vivo contrast enhanced CT imaging was assessed in BALB/c mice (18-22 g body weight, 6 mice per agent) on a micro-CT scanner with iodixanol as a control agent. […]", "data": [{"smiles": "CC(=O)N(CC(O)CN(C(C)=O)c1c(I)c(C(=O)NCC(O)CO)c(I)c(C(=O)NCC(O)CO)c1I)c1c(I)c(C(=O)NCC(O)CO)c(I)c(C(=O)NCC(O)CO)c1I", "note": "(centres unmarked) [iodixanol]", "values": [{"measurement": "vascular enhancement and delineation", "setting": "10 min after injection", "result": "did not produce any enhancement"}, {"measurement": "blood signal at its peak", "setting": "pre-injection 27±30 HU", "result": "56±26", "unit": "HU"}]}]}
